From US7094807B2, “Substituted aryl thioureas and related compounds; inhibitors of viral replication” (Achillion Pharmaceuticals, Inc., priority 2002, dated 2006)
Read-outs that look alike come from different tables or passages of the source.

Tested on: HCV replicon
Assay: HCV replicon assay (NPT ELISA in HCV replicon-containing cells)
Assay type: cell-based
Settings: Hepatitis C virus, 72 h
Procedure: The compounds claimed herein were tested for the ability to inhibit viral replication of the Hepatitis C replicon in cultured cells in which the HCV replicon construct has been incorporated. The HCV replicon system was described by Bartenschlager, et. al (Science, 285, pp. 110-113 (1999)). The replicon system is predictive of in vivo anti-HCV activity; compounds that are active in humans uniformly evidence activity in the replicon assay.
In this assay HCV replicon containing cells are treated with different concentrations of the test compound to ascertain the ability of the test compound to suppress replication of the HCV replicon. As a positive control, HCV replicon-containing cells are treated with different concentrations of interferon alpha, a known inhibitor of HCV replication. The replicon assay system includes Neomycin Phosphotransferase (NPT) as a component of the replicon itself in order to detect the transcription of replicon gene products in the host cell. Cells in which the HCV replicon is actively replicating have high levels of NPT; the level of NPT is proportional to HCV replication. […] The NPT level of each sample is measured using a captured ELISA.
A protocol for testing compounds for the ability to inhibit viral replication of the Hepatitis C replicon cultured cells in which the replicon construct has been incorporated, follows.
The HCV replicon contains, 5-′3′, the HCV-IRES, the neomycin phosphotransferase (neo) gene, the IRES of encephalomyocarditis virus, which directs translation of HCV sequences NS3 to NS5B, and the 3′-NTR. The sequence of the HCV replicon has been deposited in GenBank (Accession no. AJ242652).
The replicon is transfected into Huh-7 cells using standard methods such as electroporation.
The equipment and materials include, but are not limited to, Huh-7 HCV replicon-containing cells, maintenance media (DMEM (Dulbecco's modified Eagle media) supplemented with 10% FBS, L-glutamine, non-essential amino acids, penicillin (100 units/ml), streptomycin (100 micrograms/ml), and 500 micrograms/ml of Geneticin G418), screening media (DMEM supplemented with 10% FBS, L-glutamine, and non-essential amino acid, penicillin (100 units/ml) and streptomycin (100 micrograms/ml)), 96 well tissue culture plates (flat bottom), 96 well plates (U bottom for drug dilution), Interferon alpha for positive control, fixation reagent (such as methanol: acetone), primary antibody (rabbit anti-NPTII), secondary antibody: Eu-N1 l, and enhancement solution.
HCV replicon-containing cells are rinsed with once PBS once; 2 mls of trypsin is added. Cells are incubated at 37° C. in a 5% CO2 incubator for 3-5 minutes. 10 mls of complete medium is added to stop the reaction. Cells are blown gently, put into a 15 ml tube, and spun at 1200 rpm for four minutes. The trypsin/medium solution is removed and 5 mls of medium (500 ml DMEM (high glucose)) from BRL catalog #12430-054; 50 mls 10% FBS, […] (50 mg/ml, BRL 10131-035), 5 ml MEM non-essential amino acid (100×BRL #11140-050) and 5 ml pen-strep (BRL #15140-148) is added. The cells and media are mixed carefully
Cells are plated with screening medium (500 ml DMEM (BRL #21063-029), 50 ml FBS (BRL #10082-147) and 5 ml MEM non-essential amino acid (BRL #11140-050) at 6000-7500 cells/100 μl/well of 96 well plate (6-7.5×10^5 cells/10 ml/plate). Plates are placed into 37° C. 5% CO2 incubator overnight.
The following morning, drugs (test compounds or interferon alpha) are diluted in 96 well U bottom plates with media or DMSO/media, depending on the final concentration chosen for screening. Generally for 6 concentrations of each test compounds ranging from 10 micromolar to 0.03 micromolar are applied. 100 μl of the test compound dilution is placed in wells of the 96 well plate containing the HCV replicon cells. Media without drug is added to some wells as a negative controls. DMSO is known to affect cell growth. […]

[1] = HCV replicon-containing Huh-7 cells, three days incubation, read-out: EC50 for inhibition of replication of the HCV replicon
[2] = read-out: EC50 for inhibition of viral RNA replicon replication in Huh9-13 cells

Row | Compound | EC50 [1] | EC50 [2]
1 | CCCCOC(=O)c1ccc(NC(=S)NC(=O)c2ccc3ccccc3c2)cc1 [Compound 1, 4-[3-(Naphthalene-2-carbonyl)-thioureido]-benzoic Acid Butyl Ester] | < 30 µM | 
2 | CCCCOC(=O)c1ccc(NC(=S)N(C)C(=O)COc2ccccc2)cc1 [Compound 2, 4-[3-Methyl-3-(2-Phenoxy-acetyl)-thioureido]benzoic Acid Butyl Ester] | < 30 µM | 
3 | O=C(COc1ccc(C2CC2)cc1)NC(=S)NCc1cccs1 [Compound 3, 1-(2-(4-Cylcopropylphenoxy)acetyl)-3-((thiophen-2-yl)methyl)thiourea] | < 30 µM | 
4 | CCCCOC(=O)c1ccc(NC(=S)N(C)C(=O)COc2ccccc2C)cc1 [Compound 4, 4-[3-Methyl-3-(2-o-tolyloxy-acetyl)-thioureido]-benzoic acid butyl ester] | < 30 µM | 4.3 µM
5 | CCCCOC(=O)c1ccc(NC(=S)N(C)C(=O)COc2cccc(C)c2)cc1 [Compound 5, 4-[3-Methyl-3-(2-m-tolyloxy-acetyl)-thioureido]-benzoic acid butyl ester] | < 30 µM | 
6 | CCCCOC(=O)c1ccc(NC(=S)NC(=O)COc2ccc(C)cc2)cc1 [Compound 6, 4-[3-(2-p-tolyloxy-acetyl)-thioureido]-benzoic acid butyl ester] | < 30 µM | 
7 | CCCCOC(=O)c1ccc(NC(=S)NC(=O)COc2ccc(F)cc2)cc1 [Compound 7, 4-{3-[2-(4-Fluoro-phenoxy)-acetyl]-thioureido}-benzoic acid butyl ester] | < 30 µM | 3.4 µM
8 | CCCCOC(=O)c1ccc(NC(=S)NC(=O)COc2ccc(OC)cc2)cc1 [Compound 8, 4-{3-[2-(4-Methoxy-phenoxy)-acetyl]-thioureido}-benzoic acid butyl ester] | < 30 µM | 
9 | O=C(COc1ccccc1)NC(=S)Nc1ccc(F)cc1 [Compound 9, 1-(4-Fluoro-phenyl)-3-(2-phenoxy-acetyl)-thiourea] | < 30 µM | 
10 | COc1cccc(NC(=S)NC(=O)COc2ccccc2)c1 [Compound 10, 1-(3-Methoxy-phenyl)-3-(2-phenoxy-acetyl)-thiourea] | < 30 µM | 
11 | COc1ccc(NC(=S)NC(=O)COc2ccccc2)cc1 [Compound 11, 1-(4-Methoxy-phenyl)-3-(2-phenoxy-acetyl)-thiourea] | < 30 µM | 
12 | O=C(COc1ccccc1)NC(=S)Nc1ccc(Oc2ccccc2)cc1 [Compound 12, 1-(2-Phenoxyacetyl)-3-(4-phenoxyphenyl)thiourea] | < 30 µM | 
13 | O=C(COc1ccccc1)NC(=S)Nc1ccc(OCc2ccccc2)cc1 [Compound 13, 1-(4-Benzyloxy-phenyl)-3-(2-phenoxy-acetyl)-thiourea] | < 30 µM | 
14 | O=C(COc1ccccc1)NC(=S)Nc1ccc(-c2ccccc2)cc1 [Compound 14, 1-Biphenyl-4-yl-3-(2-phenoxy-acetyl)-thiourea] | < 30 µM | 
15 | O=C(COc1ccccc1)NC(=S)Nc1ccc(C2CCCCC2)cc1 [Compound 15, 1-(4-Cyclohexyl-phenyl)-3-(2-phenoxy-acetyl)-thiourea] | < 30 µM | 
16 | O=C(COc1ccccc1)NC(=S)Nc1ccc(N2CCCCC2)cc1 [Compound 16, 1-[(4-piperidine-1-yl)-phenyl]-3-(2-phenoxy-acetyl)-thiourea] | < 30 µM | 
17 | CCN(CC)c1ccc(NC(=S)NC(=O)COc2ccccc2)cc1 [Compound 17, 1-(4-(Diethylamino)-phenyl)-3-(2-phenoxy-acetyl)-thiourea] | < 30 µM | 
18 | O=C(COc1ccccc1)NC(=S)Nc1cccc(Oc2ccccc2)c1 [Compound 18, 1-(2-phenoxy-acetyl)-3-(3-phenoxy-phenyl)-thiourea] | < 30 µM | 
19 | O=C(COc1ccccc1)NC(=S)Nc1cccc(OCc2ccccc2)c1 [Compound 19, 1-(3-Benzyloxy-phenyl)-3-(2-phenoxy-acetyl)-thiourea] | < 30 µM | 

Row | Compound | EC50 [1] | EC50 [2]
20 | CC(=O)c1ccccc1NC(=S)NC(=O)COc1ccccc1 [Compound 20, 1-(2-Acetyl-phenyl)-3-(2-phenoxy-acetyl)-thiourea] | < 30 µM | 
21 | O=C(COc1ccccc1)NC(=S)Nc1ccc2cc(F)ccc2c1 [Compound 21, 1-(6-Fluoro-naphthalen-2-yl)-3-(2-phenoxy-acetyl)-thiourea] | < 30 µM | 
22 | O=C(COc1ccccc1)NC(=S)Nc1ccc2ncsc2c1 [Compound 22, 1-Benzothiazol-6-yl-3-(2-phenoxy-acetyl)-thiourea] | < 30 µM | 
23 | O=C(COc1ccccc1)NC(=S)Nc1cnc2ccccc2c1 [Compound 23, 1-(2-Phenoxy-acetyl)-3-quinolin-3-yl-thiourea] | < 30 µM | 
24 | N#Cc1ccc(NC(=S)NC(=O)COc2ccc(Cl)c(Cl)c2)cc1 [Compound 24, 1-(2-(3,4-dichloro-phenoxy)acetyl)-3-(4-cyanophenyl)thiourea] | < 30 µM | 12.1 µM
25 | O=C(NC(=S)Nc1cccc(Oc2ccccc2)c1)c1ccccc1O [Compound 25, 1-(2-Hydroxy-benzoyl)-3-(3-phenoxy-phenyl)-thiourea] | < 30 µM | 
26 | O=C(NC(=S)Nc1cccc(Oc2ccccc2)c1)c1cc2ccccc2o1 [Compound 26, 1-(Benzofuran-2-carbonyl)-3-(3-phenoxy-phenyl)-thiourea] | < 30 µM | 
27 | O=C(NC(=S)Nc1cccc(OCc2ccccc2)c1)c1cc2ccccc2o1 [Compound 27, 1-(Benzofuran-2-carbonyl)-3-(3-benzyloxy-phenyl)-thiourea] | < 30 µM | 
28 | O=C(NC(=S)Nc1cccc(OCc2ccccc2)c1)c1cc2ccccc2s1 [Compound 28, 1-(Benzo[b]thiophene-2-carbonyl)-3-(3-benzyloxy-phenyl)-thiourea] | < 30 µM | 
29 | O=C(NC(=S)Nc1cccc(OCc2ccccc2)c1)c1cc2cc(F)ccc2[nH]1 [Compound 29, 1-(3-Benzyloxy-phenyl)-3-(5-fluoro-1H-indole-2-carbonyl)-thiourea] | < 30 µM | 
30 | O=C(NC(=S)Nc1ccc(Oc2ccccc2)cc1)c1cc2cc(F)ccc2o1 [Compound 30, 1-(5-Fluoro-benzofuran-2-carbonyl)-3-(4-phenoxy-phenyl)-thiourea] | < 30 µM | 
31 | Fc1ccc2oc(C(=S)NC(=S)Nc3ccc(Oc4ccccc4)cc3)cc2c1 [Compound 31, 1-(5-Fluoro-benzofuran-2-carbothioyl)-3-(4-phenoxy-phenyl)-thiourea] | < 30 µM | 
32 | O=C(CCc1ccc(F)cc1)NC(=S)Nc1ccc(Oc2ccccc2)cc1 [Compound 32, 1-[3-(4-Fluoro-phenyl)-proprionyl]-3-(4-phenoxy-phenyl)-thiourea] | < 30 µM | 
33 | O=C(COc1ccccc1)NC(=S)NC1CCC(Oc2ccccc2)CC1 (stereo not drawn) [Compound 33, 1-(2-Phenoxy-acetyl)-3-(4-phenoxy-cyclohexyl)-thiourea] | < 30 µM | 
34 | O=C(COc1ccccc1)NC(=S)NCCc1ccccc1 [Compound 34, 1-Phenethyl-3-(2-phenoxy-acetyl)-thiourea] | < 30 µM | 
35 | CN(CCc1ccccc1)C(=S)NC(=O)COc1ccccc1 [Compound 35, 1-Methyl-1-phenethyl-3-(2-phenoxy-acetyl)-thiourea] | < 30 µM | 
36 | CCCCOC(=O)c1ccc(NC(=S)NC(=O)CSc2ccccc2)cc1 [Compound 36, 4-[3-(2-(Phenylsulfanyl)-acetyl)-thioureido]-benzoic acid butyl ester] | < 30 µM | 2.3 µM
37 | O=C(COc1ccccc1)NC(=S)Nc1ccc2c(c1)OCO2 [Compound 37, 1-Benzo[1,3]dioxol-5-yl-3-(2-phenoxy-acetyl)-thiourea] | < 30 µM | 
38 | O=C(COc1ccccc1)N1CCN(c2cccc(OCc3ccccc3)c2)C1=S [Compound 38] | < 30 µM | 
